Source: patent publication US20120059032A1, “1,2,3,4-TETRAHYDROISOQUINOLINE DERIVATIVES EFFECTIVE AS ANTIGLIOMA AGENTS, METHODS OF MAKING, AND THEIR USE” (University of Tennessee Research Foundation, priority 2009, published 2012)
Structures can show the parent of a compound that is named as a salt. Where two headings read alike, the source gives them in different places.

Experiments:
[1] = test system: primary cultures of normal rat astrocytes; assay: Screening and dose response assay (percent survival, 4 days, cresyl violet) on astrocytes; assay type: cell-based; conditions: Table 1
Excerpt: (§1) Screening and Dose Response Assays. […]-1-(2′-methoxybiphenyl-4-ylmethyl)-3,4-dihydro-1H-isoquinoline-2-carboxylic acid tert-butyl ester (7a; EDL-355) was synthesized as described herein in the laboratory of Dr. Duane D. Miller at The University of Tennessee Health Science Center. Briefly, the primary cultures of astrocytes and cultures of C6 glioma cell lines were handled identically with respect to treatment concentrations and manipulations of cells for the screening assays. The cells were trypsinized and transferred to 96-well plates at a cell density of 10^3 cells/mm^2 in the wells. The cells were grown overnight in 100 μL of 10% FCS BME in a 37° C. incubator containing a humid, 5% CO2 atmosphere.
(§2) EDL-355 was dissolved completely to make a 100 μM stock solution and diluted to produce a series of concentrations.
(§3) A 20 μL aliquot of these initial solutions was added to 180 μl of 2% FCS BME to produce the test concentration. The vehicle solution was tested as a control. […] Immediately before treatment, the 10% FCS BME was removed from the cells and replaced with the […] of the treatment medium. The cultured cells (normal primary cultures of rat brain astrocytes or C6 glioma purchased from ATCC) were incubated with test compound for 4 days. The cells were fixed with 4% paraformaldehyde, stained with 0.1% Cresylecth violet stain, and quantitated. The screening data was collected as four wells for each dose per compound (screening) or concentration (dose response curve). Also, the average growth of 8 wells with no treatment was used as a negative control for each plate (100% growth). The cells for dose response curves were grown in the same media and were handled in a similar manner as in the screening assays.
(§4) Data Analysis. The cytotoxic character of each compound was reported as the percent survival, calculated as the average A560 for treated cells divided by A560 of untreated (100% control) cells, and expressed as a percentage. Values less than 100% indicate a cytostatic or cytotoxic effect. Dose response curves and EC50 values were attained via plots of percent survival vs. concentration.

C6 rat glioma cells = assay: Screening and dose response assay (percent survival, 4 days, cresyl violet) on C6 glioma; assay type: cell-based
Excerpt: as §1, §2, §3, §4

For `COc1cc2c(c(OC)c1)C(Cc1ccc(-c3ccccc3OC)cc1)NCC2` (single isomer, unassigned) [12a], the EC50 ([1]; listed as drawing 11, read-out: EC50 μM Astrocyte) was 15.4 µM, the EC50 (C6 rat glioma cells; Table 1, listed as drawing 11, read-out: EC50 μM C6) was 5.4 µM and the EC50 (C6 rat glioma cells; text b70, rat C6 glioma cell lines, listed as (−) 12a, read-out: antiglioma activity on rat C6 glioma cell lines) was 5.39 µM.

In the case of `COc1cc2c(c(OC)c1)C(Cc1ccc(-c3ccccc3OC)cc1)NCC2` (single isomer, unassigned) [13a], the EC50 ([1]; Rattus norvegicus, Astrocyte) is reported as 13.3 µM, the EC50 (C6 rat glioma cells; Table 1, listed as drawing 12, read-out: EC50 μM C6) is reported as 0.3 µM and the “fold more potent than (−) 12a on rat C6 glioma cell lines” value (C6 rat glioma cells; ratio of the C6 values of (−) 12a and (+) 13a) is reported as roughly 21 fold. The EC50 (C6 rat glioma cells; text b70, rat C6 glioma cell lines, listed as (+) 13a, read-out: antiglioma activity on rat C6 glioma cell lines) was 0.26 µM.

`COc1cc2c(c(OC)c1)C(Cc1ccc(-c3ccccc3OC)cc1)NCC2.Cl` (stereo not drawn) [9a, 6,8-Dimethoxy-1-(2′-methoxybiphenyl-4-ylmethyl)-1,2,3,4-tetrahydroisoquinoline hydrochloride] showed a melting point of 140 to 142 °C, an EC50 ([1]; Rattus norvegicus, Astrocyte) of 10.2 µM and an EC50 ([1]; hydrochloride, read-out: EC50 μM Astrocyte) of 8.52 µM.

Compound `COc1cc2c(c(OC)c1)C(Cc1ccc(-c3cnccc3OC)cc1)NCC2` (stereo not drawn) [9b, 6,8-Dimethoxy-1-[4-(4-methoxypyridin-3-yl)benzyl]-1,2,3,4-tetrahydroisoquinoline dihydrochloride] has an EC50 ([1]; Rattus norvegicus, Astrocyte) of 13.7 µM and an EC50 (C6 rat glioma cells; Rattus norvegicus, Glioma cell, Table 1, read-out: EC50 μM C6) of 0.08 µM.
